Reference: ChEMBL document CHEMBL1155519, “Discovery of N-phenyl-4-(thiazol-5-yl)pyrimidin-2-amine aurora kinase inhibitors” (J Med Chem, 2010)
In brackets after ≈: the same amount, converted by molar mass. Activity calls are given as the source filed them. No cut-off for these calls is given here.

Experiments:
[1] = tested on: HT-29; assay: Cytotoxicity against human HT-29 cells after 96 hrs by MTT assay; assay type: functional, cell-based; conditions: HT-29, 96 h
[2] = tested on: HeLa; assay: Cytotoxicity against human HeLa cells after 96 hrs by MTT assay; assay type: functional, cell-based
[3] = tested on: COLO 205; assay: Cytotoxicity against human COLO205 cells after 96 hrs by MTT assay; assay type: functional, cell-based; conditions: COLO 205, 96 h
[4] = tested on: CCRF-CEM; assay: Cytotoxicity against human CCRF-CEM cells after 96 hrs by MTT assay; assay type: functional, cell-based
[5] = tested on: HuP-T4; assay: Cytotoxicity against human HUPT4 cells after 96 hrs by MTT assay; assay type: functional, cell-based; conditions: HuP-T4, 96 h
[6] = tested on: U2OS; assay: Inhibition of Aurora kinase in asynchronous human U2OS cells assessed as reduction of histone H3 serine-10 phosphorylation at 150 nM after 7 hrs immunofluorescence microscopy; assay type: cell-based
[7] = tested on: A549; assay: Effect on mitotic index in asynchronous human A549 cells assessed as appearance of misaligned chromosomes with shortened spindle fibres at 0.5 uM after 8 hrs […]; assay type: functional, cell-based
[8] = tested on: A549; assay: Cell cycle arrest in asynchronous human A549 cells assessed as accumulation of cyclin B1-negative tetraploid cells at G1 phase at 0.5 to 2 uM after 7 hrs by FACS analysis; assay type: functional, cell-based
[9] = Octanol-aqueous buffer partition coefficient, log D at pH 7.4 by shake-flask method; assay type: physicochemical
[10] = Aqueous solubility by turbidimetric analysis; assay type: physicochemical
[11] = Oral bioavailability in mouse up to 100 mg/kg; assay type: ADME, organism-based; conditions: in vivo
[12] = target: Cytochrome P450 2C19 (Homo sapiens, UniProt P33261); assay: Inhibition of human recombinant CYP2C19 at 5 uM; assay type: ADME; conditions: recombinant enzyme
[13] = target: Cytochrome P450 2D6 (Homo sapiens, UniProt P10635); assay: Inhibition of human recombinant CYP2D6 at 5 uM; assay type: ADME; conditions: recombinant enzyme
[14] = target: Cytochrome P450 3A4 (Homo sapiens, UniProt P08684); assay: Inhibition of human recombinant CYP3A4 at 5 uM; assay type: ADME; conditions: recombinant enzyme
[15] = tested on: CYP1A2; assay: In vitro elimination half life at 5 uM in presence of human recombinant CYP1A2; assay type: ADME; conditions: read-out: beta t1/2
[16] = target: Cytochrome P450 3A (Homo sapiens, UniProt P08684+P20815+Q9HB55+P24462); assay: Inhibition of CYP3A in human hepatocyte at 5 uM; assay type: ADME, cell-based; conditions: hepatocytes
[17] = target: Voltage-gated inwardly rectifying potassium channel KCNH2 (Homo sapiens, UniProt Q12809); assay: Inhibition of human ERG expressed in CHO cells up to 50 uM by patch-clamp electrophysiology; assay type: cell-based
[18] = tested on: HeLa; assay: Inhibition of Aurora kinase in human HeLa cells assessed as complete inhibition of histone H3 phosphorylation at 1.25 uM after 7 hrs by Western blot analysis; assay type: cell-based
[19] = tested on: SW-620; assay: Induction of apoptosis in human SW620 cells assessed as early apoptotic cells at 1 uM after 24 hrs by TUNEL assay; assay type: functional
[20] = target: Aurora kinase A (Homo sapiens) (UniProt O14965); assay: Inhibition of Aurora A phosphorylation in human A549 cells at 0.15 to 5 uM after 1 hr by Western blot analysis in presence of nocodazole and proteasome inhibitor MG132; assay type: cell-based
[21] = tested on: NCI-H460; assay: Antitumor activity against human NCI-H460 cells xenografted in athymic mouse assessed as delay in tumor growth at 75 mg/kg, po administered QD on day 1 after implantation for 5 days; assay type: functional
[22] = tested on: NCI-H460; assay: Antitumor activity against human NCI-H460 cells xenografted in athymic mouse assessed as reduction in tumor volume at 100 mg/kg, po administered QD on day 1 after implantation for 5 days; assay type: functional, organism-based; set-up: dose 100 mg/kg
[23] = tested on: Mus musculus; assay: Toxicity in athymic mouse xenografted with human NCI-H460 cells assessed as body weight loss at 100 mg/kg, po administered QD on day 1 after implantation for 5 days measured on day 13; assay type: organism-based; set-up: dose 100 mg/kg, route oral; conditions: in vivo, 120 h
[24] = Inhibition of Aurora kinase in human A549 cells assessed as concentration required for half-maximal inhibition of histone H3 serine-10 phosphorylation after 7 hrs immunofluorescence microscopy; assay type: cell-based; conditions: A549, 7 h
[25] = target: Aurora kinase B (Homo sapiens, UniProt Q96GD4); conditions: A549, 0.15 to 5 uM
Sequence of Aurora kinase B (Q96GD4 whole entry): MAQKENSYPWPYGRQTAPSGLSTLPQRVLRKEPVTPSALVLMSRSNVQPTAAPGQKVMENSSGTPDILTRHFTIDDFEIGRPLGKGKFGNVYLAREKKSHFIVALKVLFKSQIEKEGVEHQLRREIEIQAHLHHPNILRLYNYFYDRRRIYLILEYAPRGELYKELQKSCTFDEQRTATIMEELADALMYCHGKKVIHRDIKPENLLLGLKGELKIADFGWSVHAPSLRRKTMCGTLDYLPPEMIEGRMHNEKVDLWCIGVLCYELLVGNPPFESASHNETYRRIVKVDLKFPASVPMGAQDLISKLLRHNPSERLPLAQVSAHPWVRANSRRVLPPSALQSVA
Description: Inhibition of Aurora B phosphorylation in human A549 cells at 0.15 to 5 uM after 1 hr by Western blot analysis in presence of nocodazole and proteasome inhibitor MG132

Sequence of Voltage-gated inwardly rectifying potassium channel KCNH2 (Q12809 whole entry): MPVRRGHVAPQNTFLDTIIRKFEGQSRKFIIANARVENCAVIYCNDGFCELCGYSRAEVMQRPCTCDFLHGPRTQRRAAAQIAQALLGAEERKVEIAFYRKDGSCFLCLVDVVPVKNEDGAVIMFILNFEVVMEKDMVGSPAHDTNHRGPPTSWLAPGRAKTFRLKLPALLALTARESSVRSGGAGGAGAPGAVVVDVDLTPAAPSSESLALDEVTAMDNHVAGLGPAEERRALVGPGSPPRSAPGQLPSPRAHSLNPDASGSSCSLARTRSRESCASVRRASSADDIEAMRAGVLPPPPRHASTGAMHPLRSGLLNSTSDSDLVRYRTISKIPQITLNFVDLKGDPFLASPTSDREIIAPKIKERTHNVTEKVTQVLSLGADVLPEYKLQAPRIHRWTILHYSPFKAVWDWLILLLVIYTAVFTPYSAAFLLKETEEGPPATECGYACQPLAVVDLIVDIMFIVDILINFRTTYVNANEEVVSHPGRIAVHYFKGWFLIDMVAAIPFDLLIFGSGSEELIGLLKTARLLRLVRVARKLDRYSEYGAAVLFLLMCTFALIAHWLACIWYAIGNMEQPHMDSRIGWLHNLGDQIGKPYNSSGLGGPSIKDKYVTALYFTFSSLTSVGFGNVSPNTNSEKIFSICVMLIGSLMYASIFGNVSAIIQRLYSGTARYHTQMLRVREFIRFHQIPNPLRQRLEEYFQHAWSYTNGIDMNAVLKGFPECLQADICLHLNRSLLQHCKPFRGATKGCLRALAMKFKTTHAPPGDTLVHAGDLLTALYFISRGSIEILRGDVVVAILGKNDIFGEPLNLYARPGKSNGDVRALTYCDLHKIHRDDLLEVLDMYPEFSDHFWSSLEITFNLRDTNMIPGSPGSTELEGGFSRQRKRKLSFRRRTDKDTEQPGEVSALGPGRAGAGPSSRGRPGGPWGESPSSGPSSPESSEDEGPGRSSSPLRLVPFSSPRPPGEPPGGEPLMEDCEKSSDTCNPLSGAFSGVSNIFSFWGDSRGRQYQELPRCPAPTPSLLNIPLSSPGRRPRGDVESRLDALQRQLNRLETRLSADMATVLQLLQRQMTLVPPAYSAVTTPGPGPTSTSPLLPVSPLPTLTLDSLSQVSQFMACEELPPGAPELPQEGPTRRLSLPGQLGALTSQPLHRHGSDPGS
Sequence of Aurora kinase A (Homo sapiens) (O14965 whole entry): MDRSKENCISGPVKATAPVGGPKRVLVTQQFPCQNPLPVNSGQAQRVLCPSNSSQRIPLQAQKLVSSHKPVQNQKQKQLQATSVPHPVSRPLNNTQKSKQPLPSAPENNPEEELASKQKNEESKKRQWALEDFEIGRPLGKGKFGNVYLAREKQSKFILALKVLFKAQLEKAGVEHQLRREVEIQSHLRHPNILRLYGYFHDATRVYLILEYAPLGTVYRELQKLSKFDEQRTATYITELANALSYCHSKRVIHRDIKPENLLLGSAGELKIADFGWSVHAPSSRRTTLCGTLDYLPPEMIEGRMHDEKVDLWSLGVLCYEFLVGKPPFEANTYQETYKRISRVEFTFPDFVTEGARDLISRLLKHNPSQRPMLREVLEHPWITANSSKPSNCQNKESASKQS
Sequence of Cytochrome P450 2C19 (P33261 whole entry): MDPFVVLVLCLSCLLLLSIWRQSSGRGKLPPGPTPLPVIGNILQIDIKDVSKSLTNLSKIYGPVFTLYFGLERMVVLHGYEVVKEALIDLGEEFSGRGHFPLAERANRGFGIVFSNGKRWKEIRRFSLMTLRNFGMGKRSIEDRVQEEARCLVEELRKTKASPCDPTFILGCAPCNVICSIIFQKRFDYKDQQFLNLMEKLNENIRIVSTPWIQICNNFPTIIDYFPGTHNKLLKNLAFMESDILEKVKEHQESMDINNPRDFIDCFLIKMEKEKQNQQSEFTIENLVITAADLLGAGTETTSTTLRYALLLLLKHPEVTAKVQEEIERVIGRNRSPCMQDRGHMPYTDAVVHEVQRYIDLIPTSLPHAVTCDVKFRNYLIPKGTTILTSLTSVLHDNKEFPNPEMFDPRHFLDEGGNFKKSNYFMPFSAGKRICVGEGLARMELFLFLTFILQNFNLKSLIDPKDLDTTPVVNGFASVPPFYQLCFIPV
Sequence of Cytochrome P450 2D6 (P10635 whole entry): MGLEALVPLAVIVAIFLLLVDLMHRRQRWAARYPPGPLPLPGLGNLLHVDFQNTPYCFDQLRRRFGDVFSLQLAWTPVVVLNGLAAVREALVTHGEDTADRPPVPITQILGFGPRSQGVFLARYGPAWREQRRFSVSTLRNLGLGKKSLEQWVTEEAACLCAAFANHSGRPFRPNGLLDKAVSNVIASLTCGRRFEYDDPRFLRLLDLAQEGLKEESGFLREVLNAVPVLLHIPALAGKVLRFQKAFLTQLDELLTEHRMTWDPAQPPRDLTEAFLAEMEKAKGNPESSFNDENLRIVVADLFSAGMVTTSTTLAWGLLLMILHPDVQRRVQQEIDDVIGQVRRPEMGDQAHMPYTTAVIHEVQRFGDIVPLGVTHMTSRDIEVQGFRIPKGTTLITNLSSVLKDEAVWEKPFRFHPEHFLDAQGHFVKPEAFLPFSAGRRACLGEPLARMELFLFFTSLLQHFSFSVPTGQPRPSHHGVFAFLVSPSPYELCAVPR
Sequence of Cytochrome P450 3A4 (P08684 whole entry): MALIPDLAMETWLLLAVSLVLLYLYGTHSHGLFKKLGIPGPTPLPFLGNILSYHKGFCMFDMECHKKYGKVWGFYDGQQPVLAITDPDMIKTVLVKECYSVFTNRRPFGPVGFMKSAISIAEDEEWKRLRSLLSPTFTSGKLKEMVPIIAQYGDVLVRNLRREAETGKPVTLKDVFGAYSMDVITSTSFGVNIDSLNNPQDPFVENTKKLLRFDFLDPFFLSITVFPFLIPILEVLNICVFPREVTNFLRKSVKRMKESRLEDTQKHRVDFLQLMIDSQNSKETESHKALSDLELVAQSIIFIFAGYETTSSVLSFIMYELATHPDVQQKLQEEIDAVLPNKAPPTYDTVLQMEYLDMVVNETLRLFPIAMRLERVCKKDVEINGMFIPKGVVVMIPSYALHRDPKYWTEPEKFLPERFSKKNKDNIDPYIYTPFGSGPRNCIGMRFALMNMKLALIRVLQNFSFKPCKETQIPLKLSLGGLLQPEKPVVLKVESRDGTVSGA

SMILES: Cc1nc(N)sc1-c1ccnc(Nc2ccc(N3CCOCC3)cc2)n1 [CYC-116]
- IC50 [1]: 725 nM
- IC50 [2]: 590 nM
- IC50 [3]: 241 nM
- IC50 [4]: 471 nM
- IC50 [5]: 775 nM
- Activity [6]: inactive
- Activity [7]: Active
- Activity [8]: Active
- logD [9]: 2.74
- solubility kinetic [10]: 10.5 µM (≈ 3.87 µg/mL)
- bioavailability [11]: ≤ 61%
- inhibition (INH) [12]: Active
- inhibition (INH) [13]: Active
- inhibition (INH) [14]: Active
- half-life at 5 µM [15]: 1.2 h
- inhibition (INH) [16]: Active
- inhibition (INH) [17]: Not Active
- inhibition [18]: Active
- Activity [19]: 91%
- inhibition [20]: Active
- Activity [21]: 2.3 days
- Activity [22]: Active
- Activity [23]: Non-toxic
- IC50 [24]: 480 nM
- inhibition [25]: Active
